Laboratory results from patent publication US12648943B2, “Treatment of adrenocortical carcinoma with selective glucocorticoid receptor modulators (SGRMs) and antibody checkpoint inhibitors” (Corcept Therapeutics Incorporated, priority 2020, dated 2026).
Entries after “also recorded” stand apart in the source; their conditions may differ.

Tests used:
human NK cells [1] = experiment: Proliferation of isolated human NK cells stimulated with IL-2; format: cell-based; conditions: NK cells from healthy donors, IL-2 stimulated; cortisol alone or cortisol plus relacorilant; Mann-Whitney p=0.0099
Experimental: (§1) Given the prominent suppression of NK related genes in GC+ cases, the direct effects of GR modulation of human NK cells were assessed. NK cells were isolated from healthy donors and stimulated with IL-2. Activation (abundance of CD25+CD69+ cells) was increased by stimulation, suppressed by cortisol, and restored by relacorilant (Mann-Whitney p=0.0039) (FIG. 11A). […] (FIG. 12D).

human NK cells [2] = experiment: Gene expression in isolated human NK cells stimulated with IL-2; format: cell-based; conditions: for Expression of IL2RA (IL2 receptor) / Expression of LAG3 / Transcription of IFNG (IFNγ): IL-2 stimulated human NK cells; for Expression of IL2RA (IL2 receptor) / Expression of LAG3 / Transcription of IFNG (IFNγ) / Expression of 4-1BB (CD137 tnfrsf9): cortisol alone or cortisol plus relacorilant; for Expression of 4-1BB (CD137 tnfrsf9): stimulated human NK cells
Experimental: as §1

human NK cells [3] = experiment: Cytokine secretion by isolated human NK cells stimulated with IL-2; format: cell-based; conditions: for Cytokine secretion (both transcript and secreted protein): cortisol alone or cortisol plus relacorilant
Experimental: as §1

K562 tumor cells = experiment: K562 tumor cell killing by human NK cells in vitro; format: cell-based; conditions: for Tumor cell killing by NK cells at 5:1 ratio: 5:1 effector:tumor cell ratio, Mann-Whitney p=0.004; for Tumor cell killing by NK cells: various NK:tumor cell ratios, cortisol alone or cortisol plus relacorilant
Experimental: Activation, proliferation, and cytokine secretion are all indicative of a functional change in NK cells mediated by cortisol and relacorilant. To determine if this functional change also affected target cell killing, NK cells were incubated with K562 tumor cells. At various NK:tumor cell ratios, cortisol suppressed tumor cell killing and relacorilant restored it (FIG. 13A). […] Thus, glucocorticoids suppress tumor cell killing by human NK cells in vitro.

human NK cells [4] = experiment: Activation of isolated human NK cells stimulated with IL-2 (CD25+CD69+ cells); format: cell-based; conditions: NK cells from healthy donors, IL-2 stimulated; cortisol alone or cortisol plus relacorilant; Mann-Whitney p=0.0039
Experimental: as §1

[5] = system: tyrosine aminotransferase (TAT) in HepG2 cells; conditions: cited from earlier work
[6] = IL-2 stimulated human NK cells, relacorilant relative to cortisol alone

Structure (SMILES) | Proliferation of NK cells (human NK cells [1]) | Expression of IL2RA (IL2 receptor) (human NK cells [2]) | Expression of LAG3 (human NK cells [2]) | Transcription of IFNG (IFNγ) (human NK cells [2]) | Expression of chemokine ligand 3-like 1 (ccl3l1) (human NK cells [2]; stimulated NK cells) | Expression of 4-1BB (CD137 tnfrsf9) (human NK cells [2]) | Cytokine secretion (both transcript and secreted protein) (human NK cells [3]; IL-2 stimulated human NK cells) | interferon γ (IFNγ) secretion (human NK cells [3]; [6]) | Secretion of other effector cytokines (human NK cells [3]; human NK cells) | Tumor cell killing by NK cells at 5:1 ratio (K562 tumor cells) | Tumor cell killing by NK cells (K562 tumor cells) | NK cell activation (abundance of CD25+CD69+ cells) (human NK cells [4]) | Activity of tyrosine aminotransferase (TAT) [5] | Granzyme A secretion (human NK cells [3]; [6]) | tumor necrosis factor (TNFα) secretion (human NK cells [3]; [6])
C[C@]12CCC(=O)C=C1CC[C@@H]1[C@@H]2[C@@H](O)C[C@@]2(C)[C@H]1CC[C@]2(O)C(=O)CO [cortisol, reference compound] | suppressed | suppressed | suppressed | suppressed | suppressed | suppressed | suppressed | suppressed | suppressed | significant decrease | suppressed | suppressed | – | – | –
CC#C[C@]1(O)CC[C@H]2[C@@H]3CCC4=CC(=O)CCC4=C3[C@@H](c3ccc(N(C)C)cc3)C[C@@]21C [mifepristone] | – | – | – | – | – | – | – | – | – | – | – | – | decreases | – | –
Cn1cc(S(=O)(=O)N2CCC3=Cc4c(cnn4-c4ccc(F)cc4)C[C@]3(C(=O)c3cc(C(F)(F)F)ccn3)C2)cn1 [relacorilant, (R)-(1-(4-fluorophenyl)-6-((1-methyl-1H-pyrazol-4-yl)sulfonyl)-4,4a,5,6,7,8-hexahydro-1H-pyrazolo[3,4-g]isoquinolin-4a-yl)(4-(trifluoromethyl)pyridin-2-yl)methanone] | restore; also recorded: significantly improved | restored; also recorded: improved | restored; also recorded: promoted; also recorded: improved | improved | – | promoted | restored | improved | – | significant improvement; also recorded: counteracted | restore; also recorded: counteracted | restore; also recorded: significantly improved | – | improved | improved
